Tested on: NF-κB
Experiment: NF-kappaB reporter assay (pNF-kappaB-SEAP) in IL-1β-stimulated MKN-45 cells
Format: cell-based, human
Conditions: IL-1β 2 ng/mL for 6 hours, DMSO (0.05%) control = 1.00, triplicate
Experimental: pNF-kappaB-SEAP was obtained from Clonetech Laboratories Inc.
Cryopreserved MKN-45 cells (product of JCRB (Japanese Collection of Research Bioresources)) were thawed and cultured in a standard medium in an incubator (37° C., 5% CO2). Every three to five days, the cells were recovered by treatment with Trypsin-EDTA, then adequately diluted and subcultured. MKN-45 cells subcultured two or more times with a survival rate of 95% or more were used in each experiment.
The subcultured MKN-45 cells were harvested using Trypsin-EDTA solution, and the number of viable cells was counted. The cells were suspended in a standard medium to yield a 1.5×10^5 cells/mL suspension. A 24-well plate was seeded with 500 μL/well of the cell suspension, and the cells were cultured in an incubator (37° C., 5% CO2).
The day after seeding, transfection was performed according to the following protocol.
(4.1) Preparation of Plasmid Solution 4 μL of 0.1 μg/μL pNFkappaB-SEAP was placed into each well and diluted with 50 μL of OPTI-MEM I (product of Invitrogen Japan K.K.) by mixing by inversion.
1 μL of Lipofectamine 2000 reagent (product of Invitrogen) was placed into each well and diluted with 50 μL of OPTI-MEM I (product of Life Technologies Inc.) by mixing by inversion. The mixture was allowed to stand at room temperature for 5 to 10 minutes to prepare a Lipofectamine dilution.
The plasmid solution and the Lipofectamine dilution were mixed by inversion and allowed to stand at room temperature for 20 to 30 minutes to prepare a transfection mixture.
The culture medium was removed from the 24-well plate by suction. While care was taken not to dry the subcultured MKN-45 cells, the inner surface of the wells was washed with 1 mL/well of PBS. After the medium was replaced with 500 μL/well of OPTI-MEM I (product of Life Technologies Inc.), 100 μL/well of the transfection mixture was added, and the cells were cultured in a incubator (37° C., 5% CO2). After about 5 hours of incubation, the medium was replaced with a standard medium, and the cells were further cultured in a CO2 incubator (37° C., 5% CO2) until the following day.
On the following morning, the culture medium supernatant was removed by suction and replaced with 1 mL/well of the test compound solution or control solution diluted with a standard medium. The cells were cultured in a CO2 incubator (37° C., 5% CO2) for 1 hour. Each experiment was performed in triplicate.
200 ng/mL IL-1β was added in an amount of 10 μL/well (final concentration: 2 ng/mL), and the cells were cultured in a CO2 incubator (37° C., 5% CO2) for 6 hours.
A reporter assay was performed using Reporter Assay Kit-SEAP (product of Toyobo Co.) according to the manufacturer's protocol.
More specifically, 500 μL of the culture broth was transferred into a tube and centrifuged at 15,000 rpm for 5 minutes at 4° C. The supernatant was transferred into a 96-well white plate. The positive control included in the Reporter Assay Kit-SEAP, and a standard medium as a blank control were each added in an amount of 20 μL/well to the 96-well white plate. Further, an inhibitor for inhibiting the AP activity of the MKN-45 cells was added in an amount of 20 μL/well. After sealing the plate, the contents were mixed well. The plate was placed into a CO2 incubator (37° C., 5% CO2) and allowed to stand for 30 minutes. Subsequently, the plate was allowed to stand on ice for 1 minute, followed by addition of 160 μL/well of Lumi-Phos Plus (a chemiluminescent substrate, product of Lumigen Inc.). The plate was sealed again and placed in a light-shielded state into a CO2 incubator (37° C., 5% CO2). After the plate was allowed to stand for 15 to 30 minutes, luminescence was measured for about 5 to about 10 seconds using a luminometer.
The results of the reporter assay were expressed as Percent Control (or Inhibition), calculated according to the following formulae. The luminescence of each sample was calculated by subtracting the average of blank samples.

## COc1ccc(CC2SC(=S)NC2=O)c2c1N(CCC(C)C)C(=O)CC2 (stereo not shown) [Test Compound 965]
  NF-kappaB reporter (SEAP luminescence) IL-1b(+) mean, relative to control: 0.68

— patent publication US20090326008A1, “NF-kappa B Inhibitor” (priority 2006, published 2009)
